Legend:
[1] = tested on: Mus musculus; assay: Hypoglycemic effect in sucrose-challenged ICR mouse assessed as glucose AUC at 10 mg/kg, po by glucose oxidase method (reference value: 323.2 +/- 37.2 mg.hr/dL); assay type: functional, organism-based; design: dose 10 mg/kg
[2] = tested on: Mus musculus; assay: Hypoglycemic effect in starch-challenged ICR mouse assessed as glucose AUC at 10 mg/kg, po by glucose oxidase method (reference value: 430.1 +/- 44.7 mg.hr/dL); assay type: functional, organism-based; design: dose 10 mg/kg
[3] = tested on: Mus musculus; assay: Hypoglycemic effect in sucrose-challenged ICR mouse assessed as blood glucose level at 10 mg/kg, po after 60 mins by glucose oxidase method (reference value: 183.3 +/- 29.1 mg/dL); assay type: functional
[4] = tested on: Mus musculus; assay: Hypoglycemic effect in starch-challenged ICR mouse assessed as blood glucose level at 10 mg/kg, po after 30 mins by glucose oxidase method (reference value: 278.9 +/- 33.5 mg/dL); assay type: functional
[5] = tested on: Mus musculus; assay: Hypoglycemic effect in starch-challenged ICR mouse assessed as blood glucose level at 10 mg/kg, po after 120 mins by glucose oxidase method (reference value: 174.2 +/- 22.9 mg/dL); assay type: functional
[6] = tested on: Mus musculus; assay: Hypoglycemic effect in sucrose-challenged ICR mouse assessed as blood glucose level at 10 mg/kg, po after 30 mins by glucose oxidase method (reference value: 187.4 +/- 21.6 mg/dL); assay type: functional
[7] = Inhibition of rat intestinal alpha-glucosidase using sucrose as substrate assessed as glucose formation incubated for 10 mins prior to substrate addition measured after 30 mins by glucose oxidase method
[8] = tested on: Mus musculus; assay: Hypoglycemic effect in sucrose-challenged ICR mouse assessed as blood glucose level at 10 mg/kg, po after 120 mins by glucose oxidase method (reference value: 137.8 +/- 14.5 mg/dL); assay type: functional
[9] = tested on: Mus musculus; assay: Hypoglycemic effect in starch-challenged ICR mouse assessed as blood glucose level at 10 mg/kg, po after 60 mins by glucose oxidase method (reference value: 243.0 +/- 29.0 mg/dL); assay type: functional

SMILES | IC50 [7] [µM] | AUC [1] [ng·h/mL] | AUC [2] [ng·h/mL] | Activity [3] [mg/dL] | Activity [4] [mg/dL] | Activity [5] [mg/dL] | Activity [6] [mg/dL] | Activity [8] [mg/dL] | Activity [9] [mg/dL]
OC[C@@H](O)[C@H]1N[C@H](CO)[C@@H](O)[C@@H]1O | 0.92 | 2.94e+06 | 3.9e+06 | 147.3 | 262.8 | 150.3 | 179 | 136.7 | 216.2
C[C@H]1N[C@H](CO)[C@@H](O)[C@H](O)[C@H]1O | 22.1 | – | – | – | – | – | – | – | –
C[C@H]1O[C@H](O[C@H]2[C@H](O)[C@@H](O)[C@@H](O[C@H]3[C@H](O)[C@@H](O)C(O)O[C@@H]3CO)O[C@@H]2CO)[C@H](O)[C@@H](O)[C@@H]1N[C@H]1C=C(CO)[C@@H](O)[C@H](O)[C@H]1O (stereo partly specified) [ACARBOSE] | 0.54 | 2.23e+06 | 3.34e+06 | 118.4 | 164.8 | 177.5 | 114.6 | 111.9 | 187.7
CN1[C@H](CO)[C@@H](O)C[C@@H](O)[C@@H]1CO | 22.2 | – | – | – | – | – | – | – | –
CN1[C@H](CO)[C@H](O)[C@@H](O)[C@H](O)[C@H]1CO | 0.08 | 2.28e+06 | 2.72e+06 | 114 | 141 | 141.2 | 121.4 | 115.6 | 144.8
CN1[C@H](CO)[C@H](O)C[C@H](O)[C@H]1CO | 20 | – | – | – | – | – | – | – | –
C[C@@H]1[C@H](O)[C@@H](O)[C@H](O)[C@@H](CO)N1C | 0.72 | – | – | – | – | – | – | – | –

The next lines start with results.

IC50 [7] [µM] | SMILES | AUC [1] [ng·h/mL] | AUC [2] [ng·h/mL] | Activity [3] [mg/dL] | Activity [4] [mg/dL] | Activity [5] [mg/dL] | Activity [6] [mg/dL] | Activity [8] [mg/dL] | Activity [9] [mg/dL]
24.3 | OC[C@@H]1N[C@H](CO)[C@@H](O)[C@H](O)[C@H]1O | – | – | – | – | – | – | – | –
22.9 | CCCCN1[C@H](CO[C@@H]2O[C@H](CO)[C@@H](O)[C@H](O)[C@H]2O)[C@H](O)[C@@H](O)[C@H](O)[C@H]1CO | – | – | – | – | – | – | – | –
5.53 | OCCCCCCCC[C@H]1N[C@H](CO)[C@@H](O)[C@H](O)[C@H]1O | – | – | – | – | – | – | – | –
24.9 | OC[C@H]1N[C@H](CO)[C@@H](O)[C@@H](O)[C@H]1O | – | – | – | – | – | – | – | –
24.3 | CN1[C@H](CO[C@@H]2O[C@H](CO)[C@@H](O)[C@H](O)[C@H]2O)[C@H](O)[C@@H](O)[C@H](O)[C@H]1CO | – | – | – | – | – | – | – | –
4.22 | OC[C@H]1N[C@H](CO[C@@H]2O[C@H](CO)[C@@H](O)[C@H](O)[C@H]2O)[C@H](O)[C@@H](O)[C@@H]1O | 2.58e+06 | 3.41e+06 | 135.1 | 187.1 | 146.8 | 130.8 | 133.3 | 204.1
19.2 | OC[C@@H]1N[C@H](CO)[C@@H](O)[C@H](O)[C@@H]1O | – | – | – | – | – | – | – | –
0.09 | OC[C@H]1N[C@H](CO)[C@@H](O)[C@H](O)[C@H]1O | 2.68e+06 | 2.99e+06 | 149.9 | 129.3 | 161.2 | 126 | 136.4 | 176.4
38.6 | OC[C@H]1N[C@H](CO[C@H]2O[C@H](CO)[C@@H](O)[C@H](O)[C@H]2O)[C@H](O)[C@@H](O)[C@@H]1O | – | – | – | – | – | – | – | –

Source: ChEMBL document CHEMBL2440056, “α-Glucosidase-inhibitory iminosugars from the leaves of Suregada glomerulata” (Bioorg Med Chem, 2013)
